{"source": "patent US20130064804A1", "about": "“BIO-REPLENISHMENT (BioRep) FOR IMPROVING SLEEP ARCHITECTURE” (Naidu LP, priority 2011, published 2013)", "origin": "cited, not measured here", "key": {"[1]": {"details": "typical dose (1 to 3 mg)"}, "[2]": {"details": "in vivo"}}}
{"molecule": "COc1ccc2[nH]cc(CCNC(C)=O)c2c1", "note": "[melatonin, N-acetyl-5-methoxytryptamine]", "values": [{"measurement": "elevation of blood melatonin levels above normal", "setting": "[1]", "result": "1 to 20", "unit": "times"}]}
{"molecule": "C[S+](CC[C@H](N)C(=O)O)C[C@H]1O[C@@H](n2cnc3c(N)ncnc32)[C@H](O)[C@@H]1O", "note": "(some centres unmarked) [SAMe, S-adenosylmethionine]", "values": [{"measurement": "first-pass: fraction metabolized in the liver", "setting": "[2]", "result": "approximately 50%"}]}
